Results: patent US8188272B2, “Fused heterocyclic compounds useful as kinase modulators” (Bristol-Myers Squibb Company, priority 2007, dated 2012)

Assays:
Mouse splenic B cells = test: Mouse Splenic B Cell Proliferation Assay; type: cell-based; conditions: Balb/c splenic B cells stimulated with anti-mouse IgG IgM F(ab')2 10 μg/ml, 72 hours, 3[H]-thymidine
Procedure: Mouse Splenic B Cell Proliferation Assay
Spleens from Balb/c mice (<12 weeks old) were mashed through screens and red blood cells were removed from splenocytes with RBC lysing buffer (Sigma-Aldrich Chemical Co, —St. Louis, Mo.). T cells were depleted by incubation on nylon wool columns (Wako, Richmond, Va.). Resulting splenic B cells prepared this way were routinely >90% CD19^+ as measured by FACS analysis. B cells (1×10^5 cells per well) were added to serial dilutions of compounds in triplicate in 96-well flat-bottom plates in RPMI 1640 (Invitrogen, Grand Island, N.Y.), supplemented with 10% heat-inactivated fetal calf serum (FCS, Summit Biotechnology, Fort Collins, Colo.), containing 1% L-glutamine (Invitrogen), […] gentamicin (Invitrogen) and 5×10^−5M β-mercaptoethanol (Sigma-Aldrich). Cells were stimulated with 10 μg/ml of Affinipure F(ab′)2 fragment goat anti-mouse IgG IgM (Jackson Immunoresearch, West Grove, Pa.). Cultures were incubated for 72 hours, and pulsed for the last 6 hours with one μCi/well of ^3[H]-thymidine (PerkinElmer, Boston, Mass.) prior to harvest on a Packard cell harvester (PerkinElmer), and counted by liquid scintillation on a Packard TopCount NXT (PerkinElmer).

human recombinant Btk = target: T1, human recombinant Btk (Homo sapiens, UniProt Q06187); test: Human Recombinant Btk Enzyme Assay; type: biochemical; conditions: human recombinant Btk 1 nM, ATP 20 μM, 60 min room temperature, Caliper LabChip
T1 construct: purchased Invitrogen Corporation
T1 sequence (Q06187 whole entry): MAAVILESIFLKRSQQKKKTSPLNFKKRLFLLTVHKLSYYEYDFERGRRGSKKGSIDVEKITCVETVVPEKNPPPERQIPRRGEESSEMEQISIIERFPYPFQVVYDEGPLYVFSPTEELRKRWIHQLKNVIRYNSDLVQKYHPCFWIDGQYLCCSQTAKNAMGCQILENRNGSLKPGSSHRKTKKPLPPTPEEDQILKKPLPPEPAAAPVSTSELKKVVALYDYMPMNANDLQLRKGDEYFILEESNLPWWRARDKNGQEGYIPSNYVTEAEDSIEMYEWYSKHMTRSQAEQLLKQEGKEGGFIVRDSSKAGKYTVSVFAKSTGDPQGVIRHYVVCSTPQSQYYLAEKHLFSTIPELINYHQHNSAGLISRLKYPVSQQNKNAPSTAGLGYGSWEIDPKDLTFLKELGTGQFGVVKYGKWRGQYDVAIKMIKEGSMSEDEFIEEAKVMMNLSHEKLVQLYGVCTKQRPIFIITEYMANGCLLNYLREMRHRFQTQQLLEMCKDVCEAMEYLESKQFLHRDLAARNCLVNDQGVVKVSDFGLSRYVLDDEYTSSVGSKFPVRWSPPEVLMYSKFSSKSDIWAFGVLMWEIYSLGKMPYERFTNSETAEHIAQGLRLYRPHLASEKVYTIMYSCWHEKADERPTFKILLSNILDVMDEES
Procedure: Human Recombinant Btk Enzyme Assay
To V-bottom 384-well plates were added test compounds, human recombinant Btk (1 nM, Invitrogen Corporation), fluoresceinated peptide (1.5 μM), ATP (20 μM), and assay buffer (20 mM HEPES pH 7.4, 10 mM MgCl2, 0.015% Brij35 and 4 mM DTT in 1.6% DMSO), with a final volume of 30 μL. After incubating at room temperature for 60 min, the reaction was terminated by adding 45 μl of 35 mM EDTA to each sample. The reaction mixture was analyzed on the Caliper LabChip 3000 (Caliper, Hopkinton, Mass.) by electrophoretic separation of the fluorescent substrate and phosphorylated product. Inhibition data were calculated by comparison to no enzyme control reactions for 100% inhibition and no inhibitor controls for 0% inhibition. Dose response curves were generated to determine the concentration required inhibiting 50% of kinase activity (IC50). Compounds were dissolved at 10 mM in dimethylsulfoxide (DMSO) and evaluated at eleven concentrations.
Using this assay, the following IC50 values derived by non-linear regression analysis were determined and compared to those values of certain compounds in US 2007/0078136 and US 2008/0045536.

Human tonsillar B cells = test: Human Tonsillar B Cell Proliferation Assay; type: cell-based; conditions: tonsillar B cells stimulated with anti Human IgG+IgM F(ab')2 40 μg/ml, 72 hours, 3[H]-thymidine
Excerpt: Human Tonsillar B Cell Proliferation Assay
Tonsils were excised from patients undergoing routine tonsillectomy. Tonsil tissue was minced, mashed through screens and mononuclear cells were isolated on ficoll density gradients (Lymphocyte Separation Media; Mediatech Inc., Herndon, Va.). T cells were depleted from mononuclear cells by rosetting with sheep red blood cells (SRBC, Colorado Serum Company; Denver, Colo.). Tonsillar B cells prepared by this method were routinely >95% CD19^+ as measured by FACS analysis. B cells (1×10^5 cells per well) were added to serial dilutions of compounds in triplicate in 96-well flat-bottom plates in RPMI 1640, (Invitrogen, Grand Island, N.Y.), supplemented with 10% heat-inactivated fetal calf serum (FCS, Summit Biotechnology, Fort Collins, Colo.), and containing antibiotic/antimycotic (Invitrogen, 1:100 dilution) and gentamicin (Invitrogen, 5 μg/ml). Cells were stimulated with 40 μg/ml AffinPure F(ab′)2 Fragment Goat anti Human IgG+IgM (Jackson Immunoresearch, West Grove, Pa.) in a total volume of 0.2 ml. Cultures were incubated for 72 hours, and pulsed for the last 6 hours with one μCi/well of ^3[H]-thymidine (PerkinElmer, Boston, Mass.) prior to harvest on a Packard cell harvester (PerkinElmer), and counted by liquid scintillation on a Packard TopCount NXT (PerkinElmer).

Ramos RA1 B cells = test: Ramos FLIPR Assay (intracellular calcium); type: cell-based; conditions: Homo sapiens; Ramos RA1 B cells stimulated with F(ab')2 anti-IgM/IgG, peak intracellular calcium; read-out: Human Ramos Cell FLIPR (IC50 uM)
Procedure: Ramos RA1 B cells (ATCC CRL-1596) at a density of 2×10^6 cells/ml in RPMI minus phenol red (Invitrogen 11835-030) and 50 mM HEPES (Invitrogen 15630-130) containing 0.1% BSA (Sigma A8577) were added to one half volume of calcium loading buffer (BD bulk kit for probenecid sensitive assays, # 640177) and incubated at room temperature in the dark for 1 hour. Dye-loaded cells were pelleted (Beckmann GS-CKR, 1200 rpm, RT, 5 minutes) and resuspended in RT RPMI minus phenol red with 50 mM HEPES and 10% FBS to a density of 1×10^6 cells/ml. 150 μl aliquots (150,000/well) were plated into 96 well poly-D-lysine coated assay plates (BD 35 4640) and briefly centrifuged (Beckmann GS-CKR 800 rpm, 5 minutes, without brake). 50 μl compound dilutions in 0.4% DMSO/RPMI minus phenol red+50 mM HEPES+10% FBS were added to the wells and the plate was incubated at RT in the dark for 1 hour. Assay plate was briefly centrifuged as above prior to measuring calcium levels.
Using the FLIPR1 (Molecular devices), cells were stimulated by adding 50 μl 200 μg/ml F(ab′)2 anti-IgM/IgG (Jackson ImmunoResearch 109-006-127) diluted in 1X HBSS (Invitrogen 14025-076), 50 mM HEPES, 0.1% BSA. Changes in intracellular calcium concentrations were measured for 180 seconds and percent inhibition was determined relative to peak calcium levels seen in the presence of F(ab′)2 anti-IgM/IgG only.

CC(C)(C)c1ccc(C(=O)N[C@@H]2CCCN(c3nc(Nc4ccc(C(=O)N5CCOCC5)cc4)c4ncc(C#N)n4n3)C2)cc1 [Example 32, (R)-4-tert-Butyl-N-(1-(7-cyano-4-(4-(morpholine-4-carbonyl)phenylamino)imidazo[1,2-f][1,2,4]triazin-2-yl)piperidin-3-yl)benzamide]
IC50 (Mouse splenic B cells): 0.31 µM | IC50 (human recombinant Btk): 0.1 µM

CC(C)(C)c1ccc(C(=O)N[C@@H]2CCCN(c3nc(Nc4ccc(C(=O)N[C@H]5CCNC5)cc4)c4nccn4n3)C2)cc1 [Example 12, 4-tert-Butyl-N—((R)-1-(4-(4-((R)-pyrrolidin-3-ylcarbamoyl)phenylamino)imidazo[1,2-f][1,2,4]triazin-2-yl)piperidin-3-yl)benzamide]
IC50 (Human tonsillar B cells): 1.58 µM

CN1CCN(C(=O)c2ccc(Nc3nc(N4CCC[C@@H](NC(=O)c5ccc(C(C)(C)C)cc5)C4)nn4ccnc34)cc2)CC1 [Example 5, (R)-4-tert-Butyl-N-(1-(4-(4-(4-methylpiperazine-1-carbonyl)phenylamino)imidazo[1,2-f][1,2,4]triazin-2-yl)piperidin-3-yl)benzamide]
IC50 (Human tonsillar B cells): 0.037 µM

CC(C)(C)c1ccc(C(=O)N[C@@H]2CCCN(c3nc(Nc4ccc(C(=O)N5CC(O)C5)cc4)c4nccn4n3)C2)cc1 [Example 20]
IC50 (human recombinant Btk): 0.081 µM

CC(C)(C)c1ccc(C(=O)N[C@@H]2CCCN(c3nc(Nc4ccc(C(=O)N5CCOCC5)cc4)c4ncc(N)n4n3)C2)cc1 [Example 26, (R)—N-(1-(7-Amino-4-(4-(morpholine-4-carbonyl)phenylamino)imidazo[1,2-f][1,2,4]triazin-2-yl)piperidin-3-yl)-4-tert-butylbenzamide]
IC50 (Ramos RA1 B cells): 0.015 µM | IC50 (Mouse splenic B cells): 0.08 µM

CC(C)(C)c1ccc(C(=O)N[C@@H]2CCCN(c3nc(Nc4ccc(C(=O)N5CCN(CCO)CC5)cc4)c4nccn4n3)C2)cc1 [Example 6, (R)-4-tert-Butyl-N-(1-(4-(4-(4-(2-hydroxyethyl)piperazine-1-carbonyl)phenylamino)imidazo[1,2-f][1,2,4]triazin-2-yl)piperidin-3-yl)benzamide]
IC50 (Human tonsillar B cells): 0.17 µM

O=C(N[C@@H]1CCCN(c2nc(Nc3ccc(C(=O)N4CCOCC4)cc3)c3nccn3n2)C1)c1ccccc1 [Example 36, (R)—N-(1-(4-(4-(morpholine-4-carbonyl)phenylamino)imidazo[1,2-f][1,2,4]triazin-2-yl)piperidin-3-yl)benzamide]
IC50 (Human tonsillar B cells): 0.45 µM

CCOc1ccc(Nc2nc(N[C@H]3CC[C@H](N)CC3)nn3ccnc23)cc1 [XIII in US 2007/0078136, reference compound]
IC50 (human recombinant Btk): 1.76 µM

Nc1cnc2c(Nc3ccc(C(=O)N4CCOCC4)cc3)nc(N3CCC[C@@H](NC(=O)c4cc5ccccc5[nH]4)C3)nn12 [Example 28, (R)—N-(1-(7-Amino-4-(4-(morpholine-4-carbonyl)phenylamino)imidazo[1,2-f][1,2,4]triazin-2-yl)piperidin-3-yl)-1H-indole-2-carboxamide]
IC50 (human recombinant Btk): 0.014 µM

Cc1c(N[C@H]2CC[C@H](N)CC2)nn2ccnc2c1Nc1ccc(C(=O)N2CCOCC2)cc1 [III(18) in US 2008/0045536, reference compound]
IC50 (human recombinant Btk): > 50 µM

NC(=O)c1cnc2c(Nc3ccc(C(=O)N4CCOCC4)cc3)nc(N3CCC[C@@H](NC(=O)c4ccccc4)C3)nn12 [Example 30, (R)-2-(3-Benzamidopiperidin-1-yl)-4-(4-(morpholine-4-carbonyl)phenylamino)imidazo[1,2-f][1,2,4]-triazine-7-carboxamide]
IC50 (Mouse splenic B cells): 0.98 µM

O=C(N[C@@H]1CCCN(c2nc(Nc3ccc(C(=O)N4CCOCC4)cc3)c3nccn3n2)C1)OCc1ccccc1 [Example 4, (R)-Benzyl 1-(4-(4-(morpholine-4-carbonyl)phenylamino)imidazo[1,2-f][1,2,4]triazin-2-yl)piperidin-3-ylcarbamate]
IC50 (human recombinant Btk): 0.2 µM

CC(C)(C)c1ccc(C(=O)N[C@@H]2CCCN(c3nc(Nc4ccc(C(N)=O)cc4)c4nccn4n3)C2)cc1 [Example 10, (R)-4-tert-Butyl-N-(1-(4-(4-carbamoylphenylamino)imidazo[1,2-f][1,2,4]triazin-2-yl)piperidin-3-yl)benzamide]
IC50 (Mouse splenic B cells): 0.33 µM

CC(C)(C)c1ccc(C(=O)N[C@@H]2CCCN(c3nc(Nc4ccc(C(=O)N5CCOCC5)cc4)c4nccn4n3)C2)cc1 [Example 1, (R)-4-tert-Butyl-N-(1-(4-(4-(morpholine-4-carbonyl)phenylamino)imidazo[1,2-f][1,2,4]triazin-2-yl)piperidin-3-yl)benzamide]
IC50 (Ramos RA1 B cells): 0.26 µM

CC(C)(C)c1ccc(C(=O)N[C@@H]2CCCN(c3nc(Nc4ccc(C(=O)N[C@@H]5CCNC5)cc4)c4nccn4n3)C2)cc1 [Example 9, 4-tert-Butyl-N—((R)-1-(4-(4-((S)-pyrrolidin-3-ylcarbamoyl)phenylamino)imidazo[1,2-f][1,2,4]triazin-2-yl)piperidin-3-yl)benzamide]
IC50 (Mouse splenic B cells): 1.29 µM | IC50 (Human tonsillar B cells): 1.91 µM

CC(C)(C)c1ccc(C(=O)N[C@@H]2CCCN(c3nc(Nc4ccc(C(=O)N5CCNCC5)cc4)c4nccn4n3)C2)cc1 [Example 11, (R)-4-tert-Butyl-N-(1-(4-(4-(piperazine-1-carbonyl)phenylamino)imidazo[1,2-f][1,2,4]triazin-2-yl)piperidin-3-yl)benzamide]
IC50 (Ramos RA1 B cells): 0.028 µM | IC50 (human recombinant Btk): 0.013 µM

O=C(c1ccc(Nc2cc(N[C@H]3CCCNC3)nn3ccnc23)cc1)N1CCOCC1 [V(10) in US 2008/0045536, reference compound]
IC50 (human recombinant Btk): 1.96 µM

NCc1cnc2c(Nc3ccc(C(=O)N4CCOCC4)cc3)nc(N3CCC[C@@H](NC(=O)c4cc5ccccc5[nH]4)C3)nn12 [Example 35, (R)—N-(1-(7-(Aminomethyl)-4-(4-(morpholine-4-carbonyl)phenylamino)imidazo[1,2-f][1,2,4]triazin-2-yl)piperidin-3-yl)-1H-indole-2-carboxamide]
IC50 (Ramos RA1 B cells): 1.24 µM

CC(C)(C)c1ccc(C(=O)N[C@H]2CCCN(c3nc(Nc4ccc(C(=O)N5CCOCC5)cc4)c4nccn4n3)C2)cc1 [Example 2, (S)-4-tert-Butyl-N-(1-(4-(4-(morpholine-4-carbonyl)phenylamino)imidazo[1,2-f][1,2,4]triazin-2-yl)piperidin-3-yl)benzamide]
IC50 (Ramos RA1 B cells): 4.08 µM | IC50 (human recombinant Btk): 0.8 µM

N[C@H]1CC[C@H](Nc2cc(Nc3ccc4ccccc4n3)c3nccn3n2)CC1 [I(159) in US 2008/0045536, reference compound]
IC50 (human recombinant Btk): 0.228 µM
